Experimental findings from patent publication US7553867B2, “Furan or thiophene derivative and medicinal use thereof” (Takeda Pharmaceutical Company Limited, priority 2002, dated 2009) are described below.

One may read the melting point as the temperature of the solid-liquid transition. Compound `CCc1oc(-c2ccc(C(F)(F)F)cc2)cc1CCCOc1cc(CC(=O)O)ccc1Cl` [Example 6(98), [4-Chloro-3-(3-{2-ethyl-5-[4-(trifluoromethyl)phenyl]-3-furyl}propoxy)phenyl]acetic acid] displayed a melting point of 104 to 105 °C. `Cc1oc(-c2ccc(C(F)(F)F)cc2)cc1COc1cc(CSC(C)(C)C(=O)O)ccc1Cl` [Example 6(99), 2-{[4-Chloro-3-({2-methyl-5-[4-(trifluoromethyl)phenyl]-3-furyl}methoxy)benzyl]thio}-2-methylpropionic acid] displayed a melting point of 140 to 142 °C. Turning to `CCc1oc(-c2ccc(C(F)(F)F)cc2)cc1CCCOc1nn(CC(=O)O)c2ccccc12` [Example 6(100), [3-(3-{2-Ethyl-5-[4-(trifluoromethyl)phenyl]-3-furyl}propoxy)-1H-indazol-1-yl]acetic acid], the melting point was in the range of 139 to 140 °C. Under `Cc1oc(-c2ccc(C(F)(F)F)cc2)cc1COc1ccc2sc(CC(=O)O)cc2c1` [Example 6(101), [5-({2-Methyl-5-[4-(trifluoromethyl)phenyl]-3-furyl}methoxy)-1-benzothien-2-yl]acetic acid] stands 153 to 154 °C; under `CCc1oc(-c2ccc(C(F)(F)F)cc2)cc1CCCOc1ccc2sc(CC(=O)O)cc2c1` [Example 6(102), [5-(3-{2-Ethyl-5-[4-(trifluoromethyl)phenyl]-3-furyl}propoxy)-1-benzothien-2-yl]acetic acid], 111 to 112 °C; under `Cc1oc(-c2ccc(C(F)(F)F)cc2)cc1COc1ccc2sc(CCC(=O)O)cc2c1` [Example 6(103), 3-[5-({2-Methyl-5-[4-(trifluoromethyl)phenyl]-3-furyl}methoxy)-1-benzothien-2-yl]propionic acid], 187 to 188 °C. Under `Cc1oc(-c2ccc(C(F)(F)F)cc2)cc1CCCCOc1ccc(OC(C)(C)C(=O)O)cc1` [Example 6(104), 2-Methyl-2-[4-(4-{2-methyl-5-[4-(trifluoromethyl)phenyl]-3-furyl}butoxy)phenoxy]propionic acid] stands 67 to 69 °C; under `Cc1oc(-c2ccc(C(F)(F)F)cc2)cc1CCCCOc1ccc(SC(C)(C)C(=O)O)cc1` [Example 6(106), 2-Methyl-2-{[4-(4-{2-methyl-5-[4-(trifluoromethyl)phenyl]-3-furyl}butoxy)phenyl]thio}propionic acid], 155 to 156 °C. In turn, `Cc1oc(-c2ccc(C(F)(F)F)cc2)cc1COc1ccc2sc(CSC(C)(C)C(=O)O)cc2c1` [Example 6(107), 2-Methyl-2-({[5-({2-methyl-5-[4-(trifluoromethyl)phenyl]-3-furyl}methoxy)-1-benzothien-2-yl]methyl}thio)propionic acid] returned a melting point of 158 to 159 °C. Under `Cc1oc(-c2cccc(C(F)(F)F)c2)cc1COc1ccc(SC(C)(C)C(=O)O)cc1` [Example 6(108), 2-Methyl-2-{[4-({2-methyl-5-[3-(trifluoromethyl)phenyl]-3-furyl}methoxy)phenyl]thio}propionic acid] stands 108 to 109 °C; under `Cc1oc(-c2ccc(C(F)(F)F)cc2)cc1COc1cccc(CSC(C)(C)C(=O)O)c1` [Example 6(109), 2-Methyl-2-{[3-({2-methyl-5-[4-(trifluoromethyl)phenyl]-3-furyl}methoxy)benzyl]thio}propionic acid], 148 to 149 °C; under `COc1ccc(-c2cc(COc3cccc(CSC(C)(C)C(=O)O)c3)c(C)o2)cc1` [Example 6(110), 2-[(3-{[5-(4-Methoxyphenyl)-2-methyl-3-furyl]methoxy}benzyl)thio]-2-methylpropionic acid], 96 to 97 °C. Regarding `Cc1oc(-c2ccc(Cl)cc2)cc1COc1cccc(CSC(C)(C)C(=O)O)c1` [Example 6(111), 2-[(3-{[5-(4-Chlorophenyl)-2-methyl-3-furyl]methoxy}benzyl)thio]-2-methylpropionic acid], the melting point fell in the range of 143 to 144 °C. Under `Cc1oc(-c2cccc(F)c2)cc1COc1cccc(CSC(C)(C)C(=O)O)c1` [Example 6(112), 2-[(3-{[5-(3-Fluorophenyl)-2-methyl-3-furyl]methoxy}benzyl)thio]-2-methylpropionic acid] stands 116 to 117 °C; under `Cc1oc(-c2ccc(Cl)cc2)cc1COc1ccc(SC(C)(C)C(=O)O)cc1` [Example 6(114), 2-[(4-{[5-(4-Chlorophenyl)-2-methyl-3-furyl]methoxy}phenyl)thio]-2-methylpropionic acid], 130 to 131 °C; under `Cc1oc(-c2cccc(F)c2)cc1COc1ccc(SC(C)(C)C(=O)O)cc1` [Example 6(115), 2-[(4-{[5-(3-Fluorophenyl)-2-methyl-3-furyl]methoxy}phenyl)thio]-2-methylpropionic acid], 146 to 147 °C.

As to `Cc1oc(-c2ccccc2C(F)(F)F)cc1COc1ccc(SC(C)(C)C(=O)O)cc1` [Example 6(117), 2-Methyl-2-{[4-({2-methyl-5-[2-(trifluoromethyl)phenyl]-3-furyl}methoxy)phenyl]thio}propionic acid], the melting point fell in the range of 115 to 116 °C. Take `Cc1oc(-c2ccc(C(F)(F)F)cc2)cc1COc1cccc(SC(C)(C)C(=O)O)c1` [Example 6(118), 2-Methyl-2-{[3-({2-methyl-5-[4-(trifluoromethyl)phenyl]-3-furyl}methoxy)phenyl]thio}propionic acid]: the melting point was 127 to 128 °C.

Compound `Cc1oc(-c2ccccc2)cc1COc1cccc(CSC(C)(C)C(=O)O)c1` [Example 6(119), 2-Methyl-2-({3-[(2-methyl-5-phenyl-3-furyl)methoxy]benzyl}thio)propionic acid] yielded a melting point of 113 to 114 °C. Under `Cc1ccc(-c2cc(COc3cccc(CSC(C)(C)C(=O)O)c3)c(C)o2)cc1` [Example 6(120), 2-Methyl-2-[(3-{[2-methyl-5-(4-methylphenyl)-3-furyl]methoxy}benzyl)thio]propionic acid] stands 121 to 122 °C; under `Cc1oc(-c2ccc(C(F)(F)F)cc2)cc1CCCOc1ccc(SC(C)(C)C(=O)O)cc1` [Example 6(122), 2-Methyl-2-{[4-(3-{2-methyl-5-[4-(trifluoromethyl)phenyl]-3-furyl}propoxy)phenyl]thio}propionic acid], 127 to 128 °C; under `Cc1oc(-c2ccc(C(F)(F)F)cc2)cc1COc1ccc(CCC(=O)O)cc1` [Example 6(123), 3-[4-({2-Methyl-5-[4-(trifluoromethyl)phenyl]-3-furyl}methoxy)phenyl]propionic acid], 182 to 183 °C.

The compound `Cc1oc(-c2ccc(C(F)(F)F)cc2)cc1COc1cccc(-c2cccc(C(=O)O)c2)c1` [Example 6(125), 3′-({2-Methyl-5-[4-(trifluoromethyl)phenyl]-3-furyl}methoxy)-1,1′-biphenyl-3-carboxylic acid] displayed a melting point of 178 to 179 °C. Turning to `Cc1oc(-c2ccc(C(F)(F)F)cc2)cc1COc1cccc(-c2cccc(CC(=O)O)c2)c1` [Example 6(126), [3′-({2-Methyl-5-[4-(trifluoromethyl)phenyl]-3-furyl}methoxy)-1,1′-biphenyl-3-yl]acetic acid], the melting point lay in the range of 128 to 129 °C.
